# Results: US20240150423A1, “GLP-1 ANALOGUE-MODIFIED DIMERS WITH DIFFERENT CONFIGURATIONS, PREPARATION METHOD THEREOF, AND APPLICATION THEREOF IN TREATMENT OF TYPE II DIABETES” (Nanjing Finepeptide Biopharmaceutical Co.,Ltd, priority 2019, published 2024)
# Positions of bridges follow the written chain, without caps; N, C: chain ends. Non-standard residues stand in square brackets, D forms with d. Chains are numbered I, II in the order given. No end group written: not given here. bAib = not defined here; βAib = beta-Aib residue; PEG = not defined here; Aib = CC(C)(N)C(=O)O
# System: Normal Kunming (KM) mice
# Test: multiple OGTT (mOGTT): hypoglycemic duration after a single administration
# Assay type: in vivo
# Conditions: monomeric peptides, single injection at the same dose (1.126 nmol), subcutaneous
# Summary of the method: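 Single administration in normal Kunming mice, followed by oral glucose loading with tail-vein glucose sampled at 0–120 min (0, 10, 20, 40, 60, 120 min). Effective duration ended once mean glucose exceeded the NaCl control group on two occasions.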
row,Substance,Hypoglycemic
1,His-aAib-Glu-Gly-Thr-Phe-Thr-Cys-Asp-Val-Ser-Ser-Tyr-Leu-Glu-Gly-Gln-Ala-Ala-Lys-Glu-Phe-Ile-Ala-Trp-Leu-Val-Arg-aAib-Arg-NH2 (H[Aib]EGTFTCDVSSYLEGQAAKEFIAWLVR[Aib]R-NH2; N-terminus assumed; SMILES CC[C@H](C)[C@H](NC(=O)[C@H](Cc1ccccc1)NC(=O)[C@H](CCC(=O)O)NC(=O)[C@H](CCCCN)NC(=O)[C@H](C)NC(=O)[C@H](C)NC(=O)[C@H](CCC(N)=O)NC(=O)CNC(=O)[C@H](CCC(=O)O)NC(=O)[C@H](CC(C)C)NC(=O)[C@H](Cc1ccc(O)cc1)NC(=O)[C@H](CO)NC(=O)[C@H](CO)NC(=O)[C@@H](NC(=O)[C@H](CC(=O)O)NC(=O)[C@H](CS)NC(=O)[C@@H](NC(=O)[C@H](Cc1ccccc1)NC(=O)[C@@H](NC(=O)CNC(=O)[C@H](CCC(=O)O)NC(=O)C(C)(C)NC(=O)[C@@H](N)Cc1c[nH]cn1)[C@@H](C)O)[C@@H](C)O)C(C)C)C(=O)N[C@@H](C)C(=O)N[C@@H](Cc1c[nH]c2ccccc12)C(=O)N[C@@H](CC(C)C)C(=O)N[C@H](C(=O)N[C@@H](CCCNC(=N)N)C(=O)NC(C)(C)C(=O)N[C@@H](CCCNC(=N)N)C(N)=O)C(C)C) [G8 series 64],2 days
2,His-Ala-Glu-Gly-Thr-Phe-Thr-Ser-Asp-Val-Ser-Cys-Tyr-Leu-Glu-Gly-Gln-Ala-Ala-Lys-Glu-Phe-Ile-Ala-Trp-Leu-Val-Arg-Gly-Arg-NH-PEG (HAEGTFTSDVSCYLEGQAAKEFIAWLVRGR; not fully specified; C-terminal PEG; Sequence is synthesized; (30)..(30) N-terminal is modified with PEG) [G9 series 71],3 days
3,His-βAib-Glu-Gly-Thr-Phe-Thr-Ser-Asp-Val-Cys-Ser-Tyr-Leu-Glu-Gly-Gln-Ala-Ala-Lys-Glu-Phe-Ile-Ala-Trp-Leu-Val-Lys-βAib-Arg-NH2 (H[βAib]EGTFTSDVCSYLEGQAAKEFIAWLVK[βAib]R-NH2; also: disulfide-linked homodimer via Cys) [G2 series 17],3 days
4,His-aAib-Glu-Gly-Thr-Phe-Thr-Ser-Asp-Val-Ser-Cys-Tyr-Leu-Glu-Gly-Gln-Ala-Ala-Lys[N-ϵ-(N-α-Palmitoyl-L-γ-glutamyl)]-Glu-Phe-Ile-Ala-Trp-Leu-Val-Arg-Gly-Arg-Gly-NH2 (HXEGTFTSDVSCYLEGQAAXEFIAWLVRGRG; Aib; palmitoyl-gamma-Glu on Lys; C-terminal amide; Sequence is synthesized; (2)..(2) Xaa is aAib; (20)..(20) Xaa is 26Lys[N-e-(N-a-palmitoyl-L-g-glutamyl)]; (31)..(31) N-terminal) [G6 series 48],7 days
5,His-Ala-Glu-Gly-Thr-Phe-Thr-Cys-Asp-Val-Ser-Ser-Tyr-Leu-Glu-Gly-Gln-Ala-Ala-Lys[N-ϵ-(N-α-Palmitoyl-L-γ-glutamyl)]-Glu-Phe-Ile-Ala-Trp-Leu-Val-Arg-Gly-Arg-Gly-OH (HAEGTFTCDVSSYLEGQAAXEFIAWLVRGRG; palmitoyl-gamma-Glu on Lys; C-terminal acid; Sequence is synthesized; (20)..(20) Xaa is 26Lys[N-e-(N-a-palmitoyl-L-g-glutamyl)]; (31)..(31) C-terminal) [G8 series 56],1 days
6,His-aAib-Glu-Gly-Thr-Phe-Thr-Ser-Asp-Val-Ser-Cys-Tyr-Leu-Glu-Gly-Gln-Ala-Ala-Lys[N-ϵ-(N-α-Palmitoyl)]-Glu-Phe-Ile-Ala-Trp-Leu-Val-Arg-Gly-Arg-Gly-NH2 (HXEGTFTSDVSCYLEGQAAXEFIAWLVRGRG; not fully specified; Aib; palmitoyl on Lys side chain; C-terminal amide; Sequence is synthesized; (2)..(2) Xaa is aAib; (20)..(20) Xaa is 26Lys[N-e-(N-a-palmitoyl-L-g-glutamyl)]; (31)..(31) N-terminal) [G4 series 37],7 days
7,His-βAib-Glu-Gly-Thr-Phe-Thr-Ser-Asp-Val-Ser-Cys-Tyr-Leu-Glu-Gly-Gln-Ala-Ala-Lys[N-ϵ-(N-α-oleoyl)]-Glu-Phe-Ile-Ala-Trp-Leu-Val-Arg-Gly-Arg-Gly-NH2 (HXEGTFTSDVSCYLEGQAAXEFIAWLVRGRG; not fully specified; beta-Aib; oleoyl on Lys side chain; C-terminal amide; Sequence is synthesized; (2)..(2) Xaa is bAib; (20)..(20) Xaa is 26Lys[N-e-(N-a-oleoyl-L-g-glutamyl)]; (31)..(31) N-terminal) [G4 series 38],6 days
8,His-βAib-Glu-Gly-Thr-Phe-Thr-Ser-Asp-Val-Cys-Ser-Tyr-Leu-Glu-Gly-Gln-Ala-Ala-Lys-Glu-Phe-Ile-Ala-Trp-Leu-Val-Arg-βAib-Arg-NH2 (H[βAib]EGTFTSDVCSYLEGQAAKEFIAWLVR[βAib]R-NH2; also: disulfide-linked homodimer via Cys) [G2 series 16],3 days
9,His-βAla-Glu-Gly-Thr-Phe-Thr-Ser-Asp-Val-Ser-Cys-Tyr-Leu-Glu-Gly-Gln-Ala-Ala-Lys[N-ϵ-(N-α-Palmitoyl-L-γ-glutamyl)]-Glu-Phe-Ile-Ala-Trp-Leu-Val-Lys[N-ϵ-(N-α-Palmitoyl-L-γ-glutamyl)]-Gly-Arg-Gly-NH2 (HXEGTFTSDVSCYLEGQAAXEFIAWLVXGRG; not fully specified; beta-amino acid; two palmitoyl-gamma-Glu on Lys; amide; Sequence is synthesized; (2)..(2) Xaa is bAla; (20)..(20) Xaa is 26Lys[N-e-(N-a-palmitoyl-L-g-glutamyl)]; (28)..(28) Xaa is 26Lys[N-e-(N-a-palmitoyl-L-g-glutamyl)]; (31)..(31) N-terminal) [G5 series 44],2 days
10,His-aAib-Glu-Gly-Thr-Phe-Thr-Cys-Asp-Val-Ser-Ser-Tyr-Leu-Glu-Gly-Gln-Ala-Ala-Lys[N-ϵ-(N-α-oleoyl-L-γ-glutamyl)]-Glu-Phe-Ile-Ala-Trp-Leu-Val-Arg-Gly-Arg-Gly-OH (HXEGTFTCDVSSYLEGQAAXEFIAWLVRGRG; Aib; oleoyl-gamma-Glu on Lys; C-terminal acid; Sequence is synthesized; (2)..(2) Xaa is aAib; (20)..(20) Xaa is 26Lys[N-e-(N-a-oleoyl-L-g-glutamyl)]; (31)..(31) C-terminal) [G8 series 63],2 days
11,His-βAib-Glu-Gly-Thr-Phe-Thr-Cys-Asp-Val-Ser-Ser-Tyr-Leu-Glu-Gly-Gln-Ala-Ala-Lys[N-ϵ-(N-α-oleoyl-L-γ-glutamyl)]-Glu-Phe-Ile-Ala-Trp-Leu-Val-Arg-Gly-Arg-Gly-NH2 (HXEGTFTCDVSSYLEGQAAXEFIAWLVRGRG; beta-Aib; oleoyl-gamma-Glu on Lys; C-terminal amide; Sequence is synthesized; (2)..(2) Xaa is bAib; (20)..(20) Xaa is 26Lys[N-e-(N-a-oleoyl-L-g-glutamyl)]; (31)..(31) N-terminal) [G8 series 66],3 days
12,His-aAib-Glu-Gly-Thr-Phe-Thr-Cys-Asp-Val-Ser-Ser-Tyr-Leu-Glu-Gly-Gln-Ala-Ala-Lys[N-ϵ-(N-α-Palmitoyl-γ-glutamyl)]-Glu-Phe-Ile-Ala-Trp-Leu-Val-Arg-Gly-Arg-Gly-OH (HXEGTFTCDVSSYLEGQAAXEFIAWLVRGRG; Aib; palmitoyl-gamma-Glu on Lys; C-terminal acid; Sequence is synthesized; (2)..(2) Xaa is aAib; (20)..(20) Xaa is 26Lys[N-e-(N-a-palmitoyl-L-g-glutamyl)]; (31)..(31) C-terminal) [G8 series 60],2 days
13,His-Ala-Glu-Gly-Thr-Phe-Thr-Ser-Asp-Val-Ser-Cys-Tyr-Leu-Glu-Gly-Gln-Ala-Ala-Lys[N-ϵ-(N-α-Palmitoyl-L-γ-glutamyl)]-Glu-Phe-Ile-Ala-Trp-Leu-Val-Lys[N-ϵ-(N-α-Palmitoyl-L-γ-glutamyl)]-Gly-Arg-Gly-NH2 (HAEGTFTSDVSCYLEGQAAXEFIAWLVXGRG; two palmitoyl-gamma-Glu on Lys; C-terminal amide; Sequence is synthesized; (20)..(20) Xaa is 26Lys[N-e-(N-a-palmitoyl-L-g-glutamyl)]; (28)..(28) Xaa is 26Lys[N-e-(N-a-palmitoyl-L-g-glutamyl)]; (31)..(31) N-terminal) [G5 series 41],3 days

# Same assay, conditions: single injection at the same dose (1.126 nmol), subcutaneous
row,Substance,Hypoglycemic duration
1,2G2 series 17: disulfide-linked homodimer of monomer SEQ ID NO: 17 (chain 1 H[bAib]EGTFTSDVCSYLEGQAAKEFIAWLVK[bAib]R-NH2; chain 2 H[bAib]EGTFTSDVCSYLEGQAAKEFIAWLVK[bAib]R-NH2; disulfide I:11-II:11 (inferred); not fully specified; reading uncertain; also: disulfide-linked homodimer),4 days
2,2G4 series 34: disulfide-linked homodimer of monomer SEQ ID NO: 34 (HAEGTFTSDVSCYLEGQAAXEFIAWLVRGRG; not fully specified; disulfide-linked homodimer; Sequence is synthesized; (20)..(20) Xaa is 26Lys[N-e-(N-a-palmitoyl-L-g-glutamyl)]; (31)..(31) C-terminal),13 days
3,2G9 series 71: disulfide-linked homodimer of PEG-modified monomer SEQ ID NO: 71 (HAEGTFTSDVSCYLEGQAAKEFIAWLVRGR-{NH2-PEG}; reading uncertain; also: disulfide-linked homodimer),5 days
4,2G8 series 59: disulfide-linked homodimer of monomer SEQ ID NO: 59 (HAEGTFTCDVSSYLEGQAAXEFIAWLVRGRG; disulfide-linked homodimer; Sequence is synthesized; (20)..(20) Xaa is 26Lys[N-e-(N-a-oleoyl-L-g-glutamyl)]; (31)..(31) N-terminal),5 days
